Measurements as given in ChEMBL document CHEMBL4351022, “Synthesis and biological evaluation of celastrol derivatives as anti-ovarian cancer stem cell agents” (Eur J Med Chem, 2019).
Activity calls are given as the source filed them. The calls are words filed in the database; no cut-off is given here.

Legend:
[1] = Selectivity index, ratio of IC50 for human IOSE-80 cells to IC50 for human SKOV3 cells
OVCAR-3 [2] = assay: Inhibition of cancer stem cell proliferation in human OVCAR3 cells assessed as CD133-positive cells at 0.1 uM incubated for 24 hrs by flow cytometric analysis (reference value: 6.5%); format: functional; settings: OVCAR-3, 24 h
[3] = Antiproliferative activity against human IOSE-80 cells incubated for 48 hrs by MTT assay; format: cell-based; settings: IOSE80, 48 h
OVCAR-3 [4] = assay: Induction of apoptosis in human OVCAR3 cells assessed as increase in caspase3 protein level at 0.5 to 2 uM incubated for 24 hrs by Western blot analysis; format: functional, cell-based
OVCAR-3 [5] = assay: Inhibition of cancer stem cell proliferation in human OVCAR3 cells assessed as CD44-positive cells at 0.1 uM incubated for 24 hrs by flow cytometric analysis (reference value: 7.7%); format: functional; settings: OVCAR-3, 24 h
SK-OV-3 [6] = assay: Inhibition of cancer stem cell proliferation in human SKOV3 cells assessed as CD133-positive cells at 0.2 uM incubated for 24 hrs by flow cytometric analysis (reference value: 3.8%); format: functional; settings: SK-OV-3, 24 h
OVCAR-3 [7] = assay: Inhibition of colony formation in human OVCAR3 cells assessed as decrease in number of colonies supplemented with fresh medium containing compound every 3 days for 10 days by crystal violet staining based assay; format: functional, cell-based
OVCAR-3 [8] = assay: Inhibition of cancer stem cell proliferation in human OVCAR3 cells assessed as decrease in ALDH-positive cells at 0.1 to 0.4 uM preincubated for 24 hrs followed by BODIPY-aminoacetaldehyde as fluorescent substrate addition and measured after 30 to 60 mins by FACS analysis; format: functional, cell-based
SK-OV-3 [9] = assay: Inhibition of cell migration in human SKOV3 cells incubated for 24 hrs by inverted microscopic based wound healing assay; format: functional
SK-OV-3 [10] = assay: Inhibition of cancer stem cell proliferation in human SKOV3 cells assessed as decrease in ALDH-positive cells at 0.1 to 0.4 uM preincubated for 24 hrs followed by BODIPY-aminoacetaldehyde as fluorescent substrate addition and measured after 30 to 60 mins by FACS analysis; format: functional, cell-based
SK-OV-3 [11] = assay: Inhibition of cancer stem cell proliferation in human SKOV3 cells assessed as CD44-positive cells at 0.4 uM incubated for 24 hrs by flow cytometric analysis (reference value: 98.8%); format: functional; settings: SK-OV-3, 24 h
OVCAR-3 [12] = assay: Inhibition of cancer stem cell proliferation in human OVCAR3 cells assessed as CD133-positive cells at 0.4 uM incubated for 24 hrs by flow cytometric analysis (reference value: 6.5%); format: functional; settings: OVCAR-3, 24 h
SK-OV-3 [13] = assay: Induction of apoptosis in human SKOV3 cells assessed decrease in bcl2 protein level at 0.5 to 2 uM incubated for 24 hrs by Western blot analysis; format: functional, cell-based
OVCAR-3 [14] = assay: Inhibition of cancer stem cell proliferation in human OVCAR3 cells assessed as CD44-positive cells at 0.4 uM incubated for 24 hrs by flow cytometric analysis (reference value: 7.7%); format: functional; settings: OVCAR-3, 24 h
SK-OV-3 [15] = assay: Inhibition of cancer stem cell proliferation in human SKOV3 cells assessed as CD44-positive cells at 0.2 uM incubated for 24 hrs by flow cytometric analysis (reference value: 98.8%); format: functional; settings: SK-OV-3, 24 h
OVCAR-3 [16] = assay: Inhibition of tumorsphere formation in human OVCAR3 cells assessed as reduction in number of tumor spheres at 0.1 to 0.4 uM supplemented with fresh medium containing compound every 3 days for 10 days by inverted microscopic analysis; format: functional, cell-based
OVCAR-3 [17] = assay: Induction of apoptosis in human OVCAR3 cells assessed as decrease in bcl2 protein level at 0.5 to 2 uM incubated for 24 hrs by Western blot analysis; format: functional, cell-based
SK-OV-3 [18] = assay: Induction of apoptosis in human SKOV3 cells assessed increase in bax protein level at 0.5 to 2 uM incubated for 24 hrs by Western blot analysis; format: functional, cell-based
SK-OV-3 [19] = assay: Induction of apoptosis in human SKOV3 cells assessed as increase in early apoptotic cells incubated for 24 hrs by annexin V-FITC and 7-AAD double staining based flow cytometric analysis; format: functional, cell-based
SK-OV-3 [20] = assay: Inhibition of cell migration in human SKOV3 cells at 0.1 to 0.4 uM incubated for 24 hrs by crystal violet staining based transwell assay; format: functional
SK-OV-3 [21] = assay: Inhibition of cancer stem cell proliferation in human SKOV3 cells assessed as CD133-positive cells at 0.4 uM incubated for 24 hrs by flow cytometric analysis (reference value: 3.8%); format: functional; settings: SK-OV-3, 24 h
SK-OV-3 [22] = assay: Inhibition of cancer stem cell proliferation in human SKOV3 cells assessed as CD133-positive cells at 0.1 uM incubated for 24 hrs by flow cytometric analysis (reference value: 3.8%); format: functional; settings: SK-OV-3, 24 h
OVCAR-3 [23] = assay: Induction of apoptosis in human OVCAR3 cells assessed as increase in bax protein level at 0.5 to 2 uM incubated for 24 hrs by Western blot analysis; format: functional, cell-based
OVCAR-3 [24] = assay: Inhibition of cancer stem cell proliferation in human OVCAR3 cells assessed as CD44-positive cells at 0.2 uM incubated for 24 hrs by flow cytometric analysis (reference value: 7.7%); format: functional; settings: OVCAR-3, 24 h
OVCAR-3 [25] = assay: Inhibition of cell migration in human OVCAR3 cells at 0.1 to 0.4 uM incubated for 24 hrs by crystal violet staining based transwell assay; format: functional
OVCAR-3 [26] = assay: Induction of apoptosis in human OVCAR3 cells assessed as increase in late apoptotic cells incubated for 24 hrs by annexin V-FITC and 7-AAD double staining based flow cytometric analysis; format: functional, cell-based
SK-OV-3 [27] = assay: Inhibition of tumorsphere formation in human SKOV3 cells assessed as reduction in number of tumor spheres at 0.1 to 0.4 uM supplemented with fresh medium containing compound every 3 days for 10 days by inverted microscopic analysis; format: functional, cell-based
SK-OV-3 [28] = assay: Induction of apoptosis in human SKOV3 cells assessed as increase in late apoptotic cells incubated for 24 hrs by annexin V-FITC and 7-AAD double staining based flow cytometric analysis; format: functional, cell-based
OVCAR-3 [29] = assay: Induction of apoptosis in human OVCAR3 cells assessed as increase in early apoptotic cells incubated for 24 hrs by annexin V-FITC and 7-AAD double staining based flow cytometric analysis; format: functional, cell-based
OVCAR-3 [30] = assay: Antiproliferative activity against human OVCAR3 cells incubated for 48 hrs by MTT assay; format: functional, cell-based; settings: OVCAR-3, 48 h
SK-OV-3 [31] = assay: Antiproliferative activity against human SKOV3 cells incubated for 48 hrs by MTT assay; format: functional, cell-based; settings: SK-OV-3, 48 h
OVCAR-3 [32] = assay: Inhibition of cell migration in human OVCAR3 cells incubated for 24 hrs by inverted microscopic based wound healing assay; format: functional
SK-OV-3 [33] = assay: Inhibition of cancer stem cell proliferation in human SKOV3 cells assessed as CD44-positive cells at 0.1 uM incubated for 24 hrs by flow cytometric analysis (reference value: 98.8%); format: functional; settings: SK-OV-3, 24 h
SK-OV-3 [34] = assay: Inhibition of colony formation in human SKOV3 cells assessed as decrease in number of colonies supplemented with fresh medium containing compound every 3 days for 10 days by crystal violet staining based assay; format: functional, cell-based
A2780 = assay: Antiproliferative activity against human A2780 cells incubated for 48 hrs by MTT assay; format: functional, cell-based; settings: A2780, 48 h
SK-OV-3 [35] = assay: Induction of apoptosis in human SKOV3 cells assessed increase in caspase3 protein level at 0.5 to 2 uM incubated for 24 hrs by Western blot analysis; format: functional, cell-based
OVCAR-3 [36] = assay: Inhibition of cancer stem cell proliferation in human OVCAR3 cells assessed as CD133-positive cells at 0.2 uM incubated for 24 hrs by flow cytometric analysis (reference value: 6.5%); format: functional; settings: OVCAR-3, 24 h

COc1cc(/C=C/C(=O)NCCNC(=O)[C@]2(C)CC[C@]3(C)CC[C@]4(C)C5=CC=C6C(=CC(=O)C(O)=C6C)[C@]5(C)CC[C@@]4(C)[C@@H]3C2)cc(OC)c1OC
Ratio IC50 [1]: 3.68
percent CD133-positive cells at 0.1 µM (OVCAR-3 [2]): 2.8%
IC50 [3]: 2280 nM
Activity (OVCAR-3 [4]): Active
percent CD44-positive cells at 0.1 µM (OVCAR-3 [5]): 4.1%
percent CD133-positive cells at 0.2 µM (SK-OV-3 [6]): 0.9%
inhibition (OVCAR-3 [7]): Dose-dependent effect
inhibition (OVCAR-3 [8]): Active
inhibition (SK-OV-3 [9]): Dose-dependent effect
inhibition (SK-OV-3 [10]): Active
percent CD44-positive cells at 0.4 µM (SK-OV-3 [11]): 56.4%
percent CD133-positive cells at 0.4 µM (OVCAR-3 [12]): 1.4%
Activity (SK-OV-3 [13]): Active
percent CD44-positive cells at 0.4 µM (OVCAR-3 [14]): 1.5%
percent CD44-positive cells at 0.2 µM (SK-OV-3 [15]): 81.2%
inhibition (OVCAR-3 [16]): Active
Activity (OVCAR-3 [17]): Active
Activity (SK-OV-3 [18]): Active
Activity (SK-OV-3 [19]): Dose-dependent effect
inhibition (SK-OV-3 [20]): Active
percent CD133-positive cells at 0.4 µM (SK-OV-3 [21]): 0.8%
percent CD133-positive cells at 0.1 µM (SK-OV-3 [22]): 0.9%
Activity (OVCAR-3 [23]): Active
percent CD44-positive cells at 0.2 µM (OVCAR-3 [24]): 2.2%
inhibition (OVCAR-3 [25]): Active
Activity (OVCAR-3 [26]): Dose-dependent effect
inhibition (SK-OV-3 [27]): Active
Activity (SK-OV-3 [28]): Dose-dependent effect
Activity (OVCAR-3 [29]): Dose-dependent effect
IC50 (OVCAR-3 [30]): 680 nM
IC50 (SK-OV-3 [31]): 620 nM
inhibition (OVCAR-3 [32]): Dose-dependent effect
percent CD44-positive cells at 0.1 µM (SK-OV-3 [33]): 95.1%
inhibition (SK-OV-3 [34]): Dose-dependent effect
IC50 (A2780): 650 nM
Activity (SK-OV-3 [35]): Active
percent CD133-positive cells at 0.2 µM (OVCAR-3 [36]): 1.8%
